Data published in US11896035B2, “Chemical mitigants in animal feed and feed ingredients” (priority 2014, dated 2024).

Tested on: PEDv
Experiment: PEDv RT-PCR (Ct) in chemically treated, then inoculated feed matrices
Parameters: species or system Porcine Epidemic Diarrhea virus
Details: room temperature; for Spray Dried Plasma Average CT Count: spray dried animal plasma
Description: In a third study, experiments were conducted to evaluate the effectiveness of various chemical mitigation strategies on post-processing contamination of PEDv in feed and feed components. Treatments were arranged in a 7×4 factorial with 6 chemical treatments plus a control, and 4 feed matrices. […] The 4 feed matrices included: 1) complete swine diet (complete nursery diet), 2) blood meal, 3) porcine meat and bone meal (MBM), and 4) spray-dried animal plasma. The 4 feed treatments×6 chemical treatments (plus 1 control) equaled 28-1 kg batches. The feed matrices were chemically treated first and then inoculated to represent post-processing contamination. […] There were 3 segregated replicates of each batch for each day of analysis. All samples were stored at room temperature. Untreated control supernant from each of the 4 feed matrixes on day 0 was harvested and aliquots frozen and used as controls for subsequent analysis days Each day these samples were used as laboratory controls to evaluate inter assay variation.
Samples were analyzed for PEDv by RT-PCR. Analyzed values represent cycle time or cycle threshold (Ct.) before detection, Lower Ct values indicate greater nucleic acid presence, but not necessarily infectivity. Data were analyzed using the GLIMMIX procedure of SAS with fixed effects of chemical treatment, matrix, and time, as well as all interactions.

## [Na+].[O-][Cl+2]([O-])[O-] [Sodium chlorate, sodium chlorate]
Day 0
  Porcine Blood Meal Average Ct Count: 29
  Porcine Meat and Bone Meal Average CT Count: 26
  Spray Dried Plasma Average CT Count: 28
  Swine Diet Average Ct Count: 28
Day 1
  Porcine Blood Meal Average Ct Count: 29
  Porcine Meat and Bone Meal Average CT Count: 25
  Spray Dried Plasma Average CT Count: 26
  Swine Diet Average Ct Count: 28
Day 3
  Porcine Blood Meal Average Ct Count: 31
  Porcine Meat and Bone Meal Average CT Count: 27
  Spray Dried Plasma Average CT Count: 28
  Swine Diet Average Ct Count: 29
Day 7
  Porcine Blood Meal Average Ct Count: 32
  Porcine Meat and Bone Meal Average CT Count: 27
  Spray Dried Plasma Average CT Count: 28
  Swine Diet Average Ct Count: 30
Day 14
  Porcine Blood Meal Average Ct Count: 33
  Porcine Meat and Bone Meal Average CT Count: 28
  Spray Dried Plasma Average CT Count: 28
  Swine Diet Average Ct Count: 29
Day 21
  Porcine Blood Meal Average Ct Count: 36
  Porcine Meat and Bone Meal Average CT Count: 27
  Spray Dried Plasma Average CT Count: 29
  Swine Diet Average Ct Count: 32
Day 42
  Porcine Blood Meal Average Ct Count: 36
  Porcine Meat and Bone Meal Average CT Count: 29
  Spray Dried Plasma Average CT Count: 28
  Swine Diet Average Ct Count: 32
